In ChEMBL document CHEMBL4842358, “Design, synthesis and biological evaluation of sphingosine-1-phosphate receptor 2 antagonists as potent 5-FU-resistance reversal agents for the treatment of colorectal cancer” (Eur J Med Chem, 2021):
One block for each molecule: values may come before it. Activity calls are given as the source filed them. No cut-off for these calls is given here.

Legend:
[1] = target: T1, Sphingosine 1-phosphate receptor 2 (Homo sapiens, UniProt O95136); experiment: Binding affinity to S1PR2 (unknown origin) assessed as dissociation constant measured for 60 secs by surface plasmon resonance assay
[2] = target: T1, Sphingosine 1-phosphate receptor 2; experiment: Binding affinity to S1PR2 (unknown origin) assessed as association constant measured for 60 secs by surface plasmon resonance assay; details: filed as antagonist, time 60.0 sec
[3] = target: T1, Sphingosine 1-phosphate receptor 2; experiment: Binding affinity to S1PR2 (unknown origin) measured by surface plasmon resonance assay; details: filed as antagonist
HCT-116 = experiment: Reversal of 5-FU resistance against human HCT-116 cells overexpressing DPD assessed as inhibition of cell proliferation measured after 72 hrs in presence of 5-FU by MTT assay; assay type: functional, cell-based; details: HCT-116, 72 h
[4] = Reversal of 5-FU resistance against human SW620/5-FU cells assessed as inhibition of cell proliferation measured after 72 hrs in presence of 5-FU by MTT assay; assay type: functional, cell-based
NCM460 = experiment: Cytotoxicity against human NCM460 cells assessed as cell viability measured after 72 hrs in presence of 5-FU by MTT assay; assay type: cell-based; details: NCM460, 72 h
[5] = target: T1, Sphingosine 1-phosphate receptor 2; experiment: Antagonist activity at S1PR2 in human SW620/5-FU cells assessed as downregulation of DPD expression by western blot analysis; assay type: functional, cell-based; details: filed as antagonist
Mus musculus [6] = experiment: Downregulation of DPD expression in tumour of athymic nude mouse xenografted with human SW620/5-FU at 1.08 mg/kg/day, iv administered for 24 days in presence of 5-FU and measured on day 24 by Western blot assay; assay type: functional, organism-based; details: time 24.0 day
[7] = Volume of distribution in Sprague-Dawley rat plasma at 1 mg/kg, iv measured for 24 hrs by LC-MS/MS analysis; assay type: ADME, organism-based
[8] = Mean residence time (0 to infinity) in Sprague-Dawley rat plasma at 1 mg/kg, iv by LC-MS/MS analysis; assay type: ADME, organism-based
Mus musculus [9] = experiment: Downregulation of DPD expression in liver of athymic nude mouse xenografted with human SW620/5-FU at 1.08 mg/kg/day, iv administered for 24 days in presence of 5-FU and measured on day 24 by immunohistochemistry; assay type: functional, organism-based; details: time 24.0 day
[10] = Ratio of drug level in Sprague-Dawley rat blood to plasma at 1 mg/kg, iv measured for 24 hrs by LC-MS/MS analysis; assay type: ADME, organism-based; details: blood and plasma
[11] = Clearance in Sprague-Dawley rat plasma at 1 mg/kg, iv measured for 24 hrs by LC-MS/MS analysis; assay type: ADME, organism-based
[12] = Downregulation of human S1PR2 expression in human SW620/5-FU cells at 0.16 to 2.5 uM cells measured by western blot assay; assay type: ADME, cell-based; details: dose 0.16-2.5 µM
[13] = AUC (0 to infinity) in Sprague-Dawley rat plasma at 1 mg/kg, iv by LC-MS/MS analysis; assay type: ADME, organism-based; design: time infinity, route intravenous, dose 1 mg/kg
[14] = AUC (0 to t) in Sprague-Dawley rat plasma at 1 mg/kg, iv measured for 24 hrs by LC-MS/MS analysis; assay type: ADME, organism-based; design: dose 1 mg/kg, time 24 hrs
[15] = Half life in Sprague-Dawley rat blood at 1 mg/kg, iv measured for 24 hrs by LC-MS/MS analysis; assay type: ADME, organism-based
[16] = target: T1, Sphingosine 1-phosphate receptor 2; experiment: Antagonist activity at S1PR2 in human SW620/5-FU cells assessed as reduction of DPD-catalyzed 5-FU degradation by measuring intracellular 5-FU level at 2 uM measured after 6 hrs by HPLC-UV analysis; assay type: functional, cell-based; details: filed as antagonist
[17] = Stability in rat liver microsomes assessed as parent compound remaining at 2 umol/L measured after 60 mins in presence of NADPH regenerating system by LC-MS/MS analysis; assay type: ADME, Microsome; details: dose 2 µmol/L, read-out: Stabilty
[18] = target: T1, Sphingosine 1-phosphate receptor 2; experiment: Antagonist activity at S1PR2 in human SW620/5-FU cells assessed as reduction of DPD-catalyzed 5-FU degradation by measuring intracellular FBAL level at 2 uM measured after 6 hrs by HPLC-UV analysis; assay type: functional, cell-based; details: filed as antagonist
[19] = Mean residence time (0 to infinity) in Sprague-Dawley rat blood at 1 mg/kg, iv by LC-MS/MS analysis; assay type: ADME, organism-based
[20] = Toxicity in athymic nude mouse xenografted with human SW620/5-FU cells assessed as changes in body weight at 1.08 mg/kg/day, iv administered for 24 days in presence of 5-FU and measured for every 4 days; assay type: organism-based; details: in vivo, 576 h, time 24 day
[21] = Mean residence time (0 to t) in Sprague-Dawley rat blood at 1 mg/kg, iv measured for 24 hrs by LC-MS/MS analysis; assay type: ADME, organism-based
[22] = target: T1, Sphingosine 1-phosphate receptor 2; experiment: Antagonist activity at S1PR2 in human SW620/5-FU cells assessed as reduction in dosage of 5-FU at 0.5 to 2.5 uM measured after 6 hrs by HPLC-UV analysis; assay type: functional, cell-based; details: filed as antagonist, dose 0.5-2.5 µM
Mus musculus [23] = experiment: Downregulation of DPD expression in colon of athymic nude mouse xenografted with human SW620/5-FU cells at 1.08 mg/kg/day, iv administered for 24 days in presence of 5-FU and measured on day 24 by immunohistochemistry; assay type: functional, organism-based; details: time 24.0 day
[24] = Mean residence time (0 to t) in Sprague-Dawley rat plasma at 1 mg/kg, iv measured for 24 hrs by LC-MS/MS analysis; assay type: ADME, organism-based
[25] = Reversal of 5-FU resistance against human SW620/5-FU cells xenografted in athymic nude mouse assessed as potentiation of 5-FU induced antitumor activity by measuring inhibition of tumor growth at 1.08 mg/kg/day, iv administered for 24 days in presence of 5-FU (reference value: 18.54%); assay type: functional; details: 576 h, time 24 day, read-out: TGI
[26] = Stability in mouse liver microsomes assessed as parent compound remaining at 2 umol/L measured after 60 mins in presence of NADPH regenerating system by LC-MS/MS analysis; assay type: ADME, Microsome; details: dose 2 µmol/L, read-out: Stabilty
[27] = target: T1, Sphingosine 1-phosphate receptor 2; experiment: Antagonist activity at S1PR2 in human HCT-116 cells overexpressing DPD assessed as downregulation of JMJD3 expression at 0.16 to 2.5 uM measured by western blot assay; assay type: functional, cell-based; details: filed as antagonist, dose 0.16-2.5 µM
Mus musculus [28] = experiment: Downregulation of DPD expression in tumour of athymic nude mouse xenografted with human SW620/5-FU at 1.08 mg/kg/day, iv administered for 24 days in presence of 5-FU and measured on day 24 by immunohistochemistry; assay type: functional, organism-based; details: time 24.0 day
[29] = target: T1, Sphingosine 1-phosphate receptor 2; experiment: Antagonist activity at S1PR2 in human HCT-116 cells overexpressing DPD assessed as downregulation of DPD expression by western blot analysis; assay type: functional, cell-based; details: filed as antagonist, dose 0.16-2.5 µM
[30] = Toxicity in athymic nude mouse xenografted with human SW620/5-FU cells assessed as histopathological changes in liver at 1.08 mg/kg/day, iv administered for 24 days in presence of 5-FU and measured on day 24 by immunohistochemistry; assay type: organism-based; details: in vivo, 576 h, time 24 day
[31] = Downregulation of S1PR2 expression in human HCT-116 cells overexpressing DPD at 0.16 to 2.5 uM cells measured by western blot assay; assay type: ADME, cell-based; details: hct-116, 2.5 µM, dose 0.16-2.5 µM
[32] = Initial plasma concentration in Sprague-Dawley rat at 1 mg/kg, iv by LC-MS/MS analysis; assay type: ADME, organism-based
[33] = target: T1, Sphingosine 1-phosphate receptor 2; experiment: Antagonist activity at S1PR2 in human SW620/5-FU cells assessed as downregulation of JMJD3 expression at 0.16 to 2.5 uM measured by western blot assay; assay type: functional, cell-based; details: filed as antagonist, dose 0.16-2.5 µM
[34] = Volume of distribution in Sprague-Dawley rat blood at 1 mg/kg, iv measured for 24 hrs by LC-MS/MS analysis; assay type: ADME, organism-based
[35] = Initial drug concentration in Sprague-Dawley rat blood at 1 mg/kg, iv by LC-MS/MS analysis; assay type: ADME, organism-based
[36] = AUC (0 to infinity) in Sprague-Dawley rat blood at 1 mg/kg, iv by LC-MS/MS analysis; assay type: ADME, organism-based; design: route intravenous, time infinity, dose 1 mg/kg
Mus musculus [37] = experiment: Downregulation of DPD expression in liver of athymic nude mouse xenografted with human SW620/5-FU at 1.08 mg/kg/day, iv administered for 24 days in presence of 5-FU and measured on day 24 by Western blot assay; assay type: functional, organism-based; details: time 24.0 day
[38] = Clearance in Sprague-Dawley rat blood at 1 mg/kg, iv measured for 24 hrs by LC-MS/MS analysis; assay type: ADME, organism-based
SW620/5-FU = experiment: Antitumour activity against human SW620/5-FU cells xenografted in athymic nude mouse assessed as inhibition of tumour growth at 1.08 mg/kg/day, iv administered for 24 days; assay type: functional; details: 576 h, time 24 day, read-out: TGI
[39] = Half life in Sprague-Dawley rat plasma at 1 mg/kg, iv measured for 24 hrs by LC-MS/MS analysis; assay type: ADME, organism-based
[40] = AUC (0 to t) in Sprague-Dawley rat blood at 1 mg/kg, iv measured for 24 hrs by LC-MS/MS analysis; assay type: ADME, organism-based; design: time 24 hrs, dose 1 mg/kg

T1 sequence (O95136 whole entry): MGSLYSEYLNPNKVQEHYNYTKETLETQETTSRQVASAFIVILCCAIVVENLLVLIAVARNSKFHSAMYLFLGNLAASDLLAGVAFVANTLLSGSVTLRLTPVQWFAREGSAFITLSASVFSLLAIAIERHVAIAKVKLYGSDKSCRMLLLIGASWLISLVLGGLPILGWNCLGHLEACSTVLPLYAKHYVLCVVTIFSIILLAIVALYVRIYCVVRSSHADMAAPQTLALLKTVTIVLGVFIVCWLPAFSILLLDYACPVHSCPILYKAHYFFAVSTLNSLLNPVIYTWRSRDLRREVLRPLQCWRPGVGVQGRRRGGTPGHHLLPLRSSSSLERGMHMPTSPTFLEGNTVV

Dissociation rate constant (koff) [1]: 1.02 10^-1/s
Ka [2]: 1.96 10^5/M/s
K [3]: 5.2 10^-7M
EC50 (HCT-116): 6.13 µM
inhibition [5]: Active
Structure (SMILES): CCOc1cc(NC(=O)Nc2cc(Cl)nc(Cl)c2)cc(Cl)n1
EC50 [4]: 8.15 µM
EC50 (NCM460): 25.3 µM

Structure (SMILES): O=C(Nc1cc(Cl)cc(Cl)c1)Nc1cc(Cl)nc(Cl)c1
Dissociation rate constant (koff) [1]: 1.16 10^-1/s
Ka [2]: 3.26 10^4/M/s
K [3]: 3.56 10^-6M
EC50 (HCT-116): 11.4 µM
EC50 [4]: 12.2 µM
EC50 (NCM460): 55.4 µM
inhibition [5]: Active

Structure (SMILES): O=C(Nc1cc(Cl)nc(Cl)c1)Nc1cc(Cl)nc(Cl)c1
inhibition (Mus musculus [6]): Active
Vd [7]: 1.7 L/kg
Dissociation rate constant (koff) [1]: 6.97 10^-1/s
Ka [2]: 5.28 10^6/M/s
MRT inf [8]: 7 h
inhibition (Mus musculus [9]): Active
blood plasma ratio at 24 h [10]: 0.484
K [3]: 1.32 10^-8M
clearance [11]: 4.17 mL/min/kg
Activity [12]: Non-Toxic
AUC(0-inf) [13]: 3960 ng·h/mL
AUC(0-t) at 24 h [14]: 3840 ng·h/mL
EC50 (HCT-116): 0.18 µM
half-life [15]: 4.4 h
Activity [16]: 10 mg/L
remaining at 1 h, 2 µM [17]: 95.2%
Activity [18]: 0.17 mg/L
MRT inf [19]: 6.7 h
Activity [20]: Non-Toxic
MRT last at 24 h [21]: 6 h
inhibition [22]: Active
inhibition (Mus musculus [23]): Active
MRT last at 24 h [24]: 6.2 h
inhibition in vivo at 1.08 mg/kg/day [25]: 66.2%
remaining at 1 h, 2 µM [26]: 97.9%
inhibition [27]: Active
inhibition (Mus musculus [28]): Active
EC50 [4]: 0.21 µM
EC50 (NCM460): 9.44 µM
inhibition [29]: Dose-Dependent Effect
Activity [30]: Non-Toxic
Activity [31]: Non-Toxic
C0 [32]: 1110 ng/mL
inhibition [33]: Active
Vd [34]: 3.3 L/kg
C0 [35]: 489 ng/mL
inhibition [5]: Dose-Dependent Effect
AUC(0-inf) [36]: 1950 ng·h/mL
inhibition (Mus musculus [37]): Active
clearance [38]: 8.5 mL/min/kg
inhibition in vivo at 1.08 mg/kg/day (SW620/5-FU): 7.5%
half-life [39]: 4.7 h
AUC(0-t) at 24 h [40]: 1890 ng·h/mL
